Measurements: US5736548A, “6-aryl pyrazolo[3,4-D] pyrimidin-4-ones and compositions and method of use thereof” (Sanofi, priority 1997, dated 1998)
“And” between values parts separate entries of the source, which are not always exact repeats. Identical values can stand only once.

Tests used:
cGMP-PDE V = cGMP-PDE V (Homo sapiens, UniProt O76074); assay: biochemical; parameters: species or system various animal species and man; settings: values separated by / and marked * are separate experimental runs
Description: The cGMP-PDE and other PDE isozymes were isolated from cardiovascular tissues (heart and aorta) of various animal species and man by anion-exchange and affinity chromatography as described by Silver et al., Sec. Messeng. Phos. 13:13-25, 1991; PDE activity, in the presence and absence of test compounds was determined essentially as described by Thompson et al., Adv. Cyclic Nucleotide Res. 10:69-92. To determine the potency and selectivity of compounds as PDE inhibitors, compounds are screened for their effect on cyclic nucleotide hydrolysis at 10 μM. […] The IC50 values are calculated from concentration-response curves as described by Tallarida and Murray, Manual of Pharmacologic Calculations with Computer Programs, Procedure 8, Graded Dose-response, pp. 14-19, Springer-Verlag, New York, 1981.

[1] = test system: Spontaneously hypertensive rats (SHR); assay: Antihypertensive activity in conscious spontaneously hypertensive rats (mean arterial pressure); type: in vivo; settings: Rattus norvegicus, 5 min, SHR iv
Description: After a 2 day recovery from surgery, three baseline blood pressure measurements were made at 5 min intervals in conscious SHR. Compounds to be tested or vehicle were then administered intravenously in a dose-dependent manner (0.3-10 mg base/kg) while arterial pressure was recorded continuously on a polygraph. The mean arterial pressure response was measured 5 minutes after the administration of each dose of the test compound and the next dose given in a cumulative dose fashion. The response to each dose of the test compound was calculated as the difference from the mean of the three baseline measurements.

[2] = test system: Spontaneously hypertensive rats (SHR); assay: as above; type: in vivo; settings: Rattus norvegicus, 5 min, po
[3] = test system: nitroglycerin tolerant spontaneously hypertensive rats; assay: Reversal of nitroglycerin-induced tolerance in spontaneously hypertensive rats; type: in vivo; settings: for Percent (%) Reversal of Nitroglycerin-induced Tolerance: intravenously 5-10 minutes prior to nitroglycerin challenge
Description: Spontaneously hypertensive rats (17-25 weeks of age) were made nitroglycerin tolerant by repeated administration of high doses of nitroglycerin (100 mg/kg, s.c., 3 times/day for 3 consecutive days). To confirm tolerance challenge doses of nitroglycerin were administered intravenously at doses ranging from 1-300 μg/kg and the maximum change in mean arterial pressure (MAP) for each dose was recorded. Groups of tolerant rats were pretreated with the compounds of the invention (tolerant pretreated group) or with vehicle (0.05N NaOH) (tolerant vehicle pretreated group) intravenously 5-10 minutes prior to administration of challenge doses of nitroglycerin. The administration of challenge doses of nitroglycerin to non-tolerant rats (the non-tolerant group) caused a dose-dependent decrease in MAP of between 10 to 40 mm Hg. […] The area under the dose-MAP curve was calculated for the non-tolerant group and for the tolerant vehicle pretreated group and the tolerant pretreated group. The percent reversal of nitrate-inducedtolerance was calculated as follows:
Percent Reversal=(AUCtol -pretreated-AUCtol-veh)/(AUCnontol
AUCnontol =the area under the dose-MAP curve for the non-tolerant group.
AUCtol-veh =the area under the dose-MAP curve for the tolerant vehicle pretreated group.
AUCtol-pretreated =the area under the dose-MAP curve for the tolerant pretreated group.
The following table summarizes the results obtained from the testing of representative compounds of the invention.

SMILES	IC50 (cGMP-PDE V)	change in vivo at 1 mg/kg ([1]; 5 minutes after dose) [%]	ED25 [1] [mg/kg]	change in vivo at 10 mg/kg ([1]; 5 minutes after dose) [%]	other results
CCCOc1ccccc1-c1nc2n(C3CCCC3)[nH]c(C)c-2c(=O)n1 [1 (c), 1-cyclopentyl-3-methyl-6-(2-propoxyphenyl)-pyrazolo[3,4-d]pyrimidin-4-one]	7 nM and 3 nM	-5	–	–	–
CCc1nn(C2CCCC2)c2nc(-c3ccc(-n4ccnc4)cc3)[nH]c(=O)c12 [8 (a), 1-cyclopentyl-3-ethyl-6-[4-(1-imidazolyl)phenyl]-pyrazolo-[3,4-d] pyrimidin-4-one 1/2 hydrate]	410 nM and 430 nM	–	5.7	-35	change in vivo at 30 mg/kg [2]: -81%; Percent (%) Reversal of Nitroglycerin-induced Tolerance ([3]; 0.3 mg/kg): 5%; change in vivo at 3 mg/kg ([1]; 5 minutes after dose): -20%
C=CCOc1ccccc1-c1nc2c(c(CC)nn2C2CCCC2)c(=O)[nH]1 [9 (b), 1-cyclopentyl-3-ethyl-6-[2-(CH2 =CH--CH2 O)phenyl]pyrazolo[3,4-d]pyrimidin-4-one]	4.9 nM	–	–	-19	–
CCc1[nH]n(C2CCCC2)c2nc(-c3cccc(OCCN4CCOCC4)c3)nc(=O)c1-2 [13 (b), 1-cyclopentyl-3-ethyl-6-[3-[2-(4-morpholinyl)ethoxy]phenyl]-pyrazolo[3,4-d]pyrimidin-4-one]	107 nM	-14	9.5	–	change in vivo at 30 mg/kg [2]: -58%; Percent (%) Reversal of Nitroglycerin-induced Tolerance ([3]; 0.3 mg/kg): 58%; change in vivo at 0.3 mg/kg ([1]; 0.3 mg/kg, 5 minutes after dose): -11%; change in vivo at 3 mg/kg ([1]; 5 minutes after dose): -19%
CCc1[nH]n(C2CCCC2)c2nc(-c3cccc(OCCN4CCCCC4)c3)nc(=O)c1-2 [19 (b), 1-cyclopentyl-3-ethyl-6-[3-[2-(1-piperidinyl)ethoxy]phenyl]pyrazolo[3,4-d]pyrimidin-4-one]	73 nM	–	12.5	-19	–
CCc1[nH]n(C2CCCC2)c2nc(-c3cccc(OCCN4CCCC4)c3)nc(=O)c1-2 [22 (b), 1-cyclopentyl-3-ethyl-6-[3-[2-(1-pyrrolidinyl)ethoxy]phenyl]pyrazolo[3,4-d]pyrimidin-4-one]	140 nM	–	17.9	-18	–
CCc1[nH]n(C2CCCC2)c2nc(-c3cccc(-n4ccnc4)c3)nc(=O)c1-2 [24 (c), 1-cyclopentyl-3-ethyl-6-[3-(1-imidazolyl)phenyl]pyrazolo-[3,4-d]pyrimidin-4-one]	130 nM	–	12.7	-21	change in vivo at 3 mg/kg ([1]; 5 minutes after dose): -13%
CCc1nn(C2CCCC2)c2nc(-c3ccc(OCCN4CCOCC4)c(OCCN4CCOCC4)c3)[nH]c(=O)c12 [25 (b), 1-cyclopentyl-3-ethyl-6-[3,4-[2-(4-morpholinyl)ethoxy]phenyl]pyrazolo[3,4-d]pyrimidin-4-one]	14 nM and 51 nM	-18	4.5	-38	change in vivo at 10 mg/kg ([2]; 10 mg/kg): -18%; change in vivo at 3 mg/kg ([1]; 5 minutes after dose): -27%
CCc1[nH]n(C2CCCC2)c2nc(-c3ccccc3C)nc(=O)c1-2 [Example 3, 1-cyclopentyl-3-ethyl-6-(2-methylphenyl)-pyrazolo[3,4-d]pyrimidin-4-one]	200 nM	-7	–	–	–
CCOc1ccccc1-c1nc2n(C3CCCC3)[nH]c(CC)c-2c(=O)n1 [Example 4, 1-cyclopentyl-3-ethyl-6-(2-ethoxyphenyl)-pyrazolo[3,4-d]pyrimidin-4-one]	5.8 nM	–	–	-13	–
CCc1[nH]n(C2CCCC2)c2nc(-c3ccccc3OC)nc(=O)c1-2 [Example 5, 1-cyclopentyl-3-ethyl-6-(2-methoxyphenyl)-pyrazolo[3,4-d]pyrimidin-4-one]	87 nM	-8	–	–	–
CCCOc1ccccc1-c1nc2n(C3CCCC3)[nH]c(CC)c-2c(=O)n1 [Example 6, 1-cyclopentyl-3-ethyl-6-(2-propoxyphenyl)-pyrazolo[3,4-d]pyrimidin-4-one]	1.6 nM	–	–	-1	Percent (%) Reversal of Nitroglycerin-induced Tolerance ([3]; 1.0 mg/kg): 49%
CCc1[nH]n(C2CCCC2)c2nc(-c3cccc(OCC(=O)O)c3)nc(=O)c1-2 [Example 21, 1-cyclopentyl-3-ethyl-6-[3-(carboxymethoxy)phenyl]pyrazolo[3,4-d]pyrimidin-4-one]	93 nM	–	–	-1	–
O=[N+]([O-])OCC(CO[N+](=O)[O-])O[N+](=O)[O-] [nitroglycerin, reference compound]	–	–	–	–	hypotensive response to nitroglycerin challenge, tolerant vehicle pretreated group (in words) ([3]; tolerant rats, vehicle pretreated, nitroglycerin 1-300 μg/kg iv): significant reduction of the hypotensive response
